Measurements taken from patent publication US7432276B2, “ABCA1 elevating compounds” (CV Therapeutics, Inc., priority 2005, dated 2008).

System: ABCA1 mRNA
Assay: ABCA1 mRNA induction in THP-1 cells, QuantiGene branched DNA assay
Format: cell-based
Conditions: 10 μM test compound, 18-20 hours; for fold induction at 10 µM: Homo sapiens, read-out: ABCA1 Induction Fold Increase over DMSO Vehicle
Description: Modulation of expression of ABCA1 mRNA levels by the compounds of the invention was determined in the following assays.
Induction of ABC1 in THP-1 cells, was measured using QuantiGene® branched DNA assay as per manufacturer's instructions. Cultures of THP-1 were grown to subconfluence in DMEM/10% FBS before replacement with DMEM/BSA and 10 and 3 μM concentrations of the test compounds in DMSO for 18-20 hours. After treatment of cells with compounds, the cells were lysed with lysis buffer at 37° C. for 20 minutes. The cell lysate and ABCA1 specific probe (Genospectra, Inc., Fremont, Calif.) mix were added to the 96 well capture plate and hybridized at 53° C. for 16-18 hours. The signal was amplified using the amplifier and label probes provided with the QuantiGene® assay followed by addition of a luminescent alkaline phosphatase substrate, dioxitane. Luminescence was quantified in Victor V plate reader.
Step 1 • Cells are lysed to release mRNA in the presence of target probes. Target mRNA from lysed cells was then captured by hybridization and transferred to the Capture Plate.
Step 2 • Signal amplification was performed by hybridization of the bDNA Amplifier and Label Probe.
Step 3 • Addition of chemiluminescence substrate yielded a QuantiGene® signal proportional to the amount of mRNA present in the sample.
Table 1 presents the relative fold increase in ABCA1 expression over DMSO for various compounds of the invention when tested at a concentration of […].

Row | Compound | fold induction at 10 µM | ABCA1 Induction Fold Increase over DMSO Vehicle [FOLD INCREASE]
1 | CC1(C)c2cc(-c3nc(C(=O)O)co3)ccc2N[C@@H]2c3c(F)cccc3OC[C@@H]21 [Number 131, 2-((6aR,12aS)-1-fluoro-6a,7,12,12a-tetrahydro-7,7-dimethyl-6H-chromeno[4,3-b]quinolin-9-yl)oxazole-4-carboxylic acid] | 2 | 
2 | COc1ccc(Br)c2c1OCC1C2Nc2ccc(C(N)=O)cc2C1(C)C (stereo not drawn) [Number 81, 1-bromo-4-methoxy-7,7-dimethyl-7,12,12a,6a-tetrahydrochromano[4,3-b]quinoline-9-carboxamide] |  | 1.9
3 | COc1cccc2c1OC[C@@H]1[C@@H]2Nc2ccc(C(=O)N3CCS(=O)(=O)CC3)cc2C1(C)C [Number 128, ((6aS,12aS)-6a,7,12,12a-tetrahydro-4-methoxy-7,7-dimethyl-6H-chromeno[4,3-b]quinolin-9-yl)(1,1-dione-1,4-thiazaperhydroin-yl)methanone] |  | 2.7
4 | COc1cccc2c1C1Nc3ccc(C(N)=O)cc3C(C)(C)C1CO2 (stereo not drawn) [Number 45, 1-methoxy-7,7-dimethyl-7,12,12a,6a-tetrahydrochromano[4,3-b]quinoline-9-carboxamide] |  | 4.9
5 | CCS(=O)(=O)N1CCN(C(=O)c2coc(-c3ccc4c(c3)C(C)(C)[C@H]3COc5cccc(OC)c5[C@H]3N4)n2)CC1 [Number 147, 2-((6aR,12aS)-1-methoxy-6a,7,12,12a-tetrahydro-7,7-dimethyl-6H-chromeno[4,3-b]quinolin-9-yl)oxazole-(4-(4-ethanesulfonylpiperazin-1-yl)methanone)] |  | 7
6 | CC1(C)c2cc(C(N)=O)ccc2NC2c3cccc(F)c3OCC21 (stereo not drawn) [Number 50, 4-fluoro-7,7-dimethyl-7,12,12a,6a-tetrahydrochromano[4,3-b]quinoline-9-carboxamide] |  | 5.0
7 | CC(C)=CCOc1cccc2c1OCC1C2Nc2ccc(C(O)(C(F)(F)F)C(F)(F)F)cc2C1(C)C (stereo not drawn) [Number 25, 2-[7,7-dimethyl-4-(3-methylbut-2-enyloxy)(7,12,12a,6a-tetrahydrochromano[4,3-b]quinolin-9-yl)]-1,1,1,3,3,3-hexafluoropropan-2-ol] |  | 4.0
8 | CCN1c2ccccc2C(C)(C)[C@@H]2COc3cccc(OC)c3[C@H]21 [Number 163, (6aS,12aS)-12-ethyl-6a,7,12,12a-tetrahydro-1-methoxy-7,7-dimethyl-6H-chromeno[4,3-b]quinoline] | 3.1 | 
9 | Cc1c(C(=O)N2CCS(=O)(=O)CC2)cnn1-c1ccc2c(c1)C(C)(C)[C@H]1COc3cccc(F)c3[C@H]1N2 [Number 145, 1-((6aR,12aS)-6a,7,12,12a-tetrahydro-1-fluoro-7,7-dimethyl-6H-chromeno[4,3-b]quinolin-9-yl)1-5-methyl-1H-pyrazole-4-((1,1-dione-1,4-thiazaperhydroin-yl)methanone)] |  | 4.5
10 | Cc1cccc2c1OCC1[C@@H]2Nc2ccccc2C1(C)C (stereo partly drawn) [Number 32, (12aS)-4,7,7-trimethyl-7,12,12a,6a-tetrahydrochromano[4,3-b]quinoline] |  | 4.9
11 | COc1cccc2c1[C@H]1Nc3ccc(-n4cc(C(=O)N(C)C)cn4)cc3C(C)(C)[C@H]1CO2 [Number 137, 1-((6aR,12aS)-6a,7,12,12a-tetrahydro-1-methoxy-7,7-dimethyl-6H-chromeno[4,3-b]quinolin-9-yl)-N,N-dimethyl-1H-pyrazole-4-carboxamide] | 7 | 
12 | COc1cccc2c1[C@@H]1[C@@H](CO2)C(C)(C)c2ccccc2N1C1CCCCC1 [Number 167, (6aS,12aS)-12-cyclohexyl-6a,7,12,12a-tetrahydro-1-methoxy-7,7-dimethyl-6H-chromeno[4,3-b]quinoline] | 7.9 | 
13 | COc1cc(-c2cn[nH]c2)cc2c1OC[C@H]1[C@@H]2Nc2ccc(C#N)cc2C1(C)C [Number 182, (6aR,12aS)-6a,7,12,12a-tetrahydro-4-methoxy-7,7-dimethyl-2-(1H-pyrazol-4-yl)-6H-chromeno[4,3-b]quinoline-9-carbonitrile] | 4.6 | 
14 | CC1(C)c2cc(-c3nc(C(=O)N4CCS(=O)(=O)CC4)co3)ccc2N[C@@H]2c3c(F)cccc3OC[C@@H]21 [Number 143, 2-((6aR,12aS)-1-fluoro-6a,7,12,12a-tetrahydro-7,7-dimethyl-6H-chromeno[4,3-b]quinolin-9-yl)oxazole-(4-(1,1-dione-1,4-thiazaperhydroin-yl)methanone)] |  | 6.1
15 | COc1cccc2c1[C@H]1Nc3ccc(C(=O)N4CCS(=O)(=O)CC4)cc3C(C)(C)[C@H]1CO2 [Number 121, ((6aR,12aS)-6a,7,12,12a-tetrahydro-1-methoxy-7,7-dimethyl-6H-chromeno[4,3-b]quinolin-9-yl)(1,1-dione-1,4-thiazaperhydroin-yl)methanone] |  | 3.2
16 | COc1cccc2c1[C@H]1Nc3ccc(-c4nnn[nH]4)cc3C(C)(C)[C@H]1CO2 [Number 71, (12aS,6aR)-1-methoxy-7,7-dimethyl-9-(1,2,3,4-tetraazol-5-yl)-7,12,12a,6a-tetrahydrochromano[4,3-b]quinoline] |  | 9.5
17 | CCCN1c2ccccc2C(C)(C)[C@@H]2COc3cccc(OC)c3[C@H]21 [Number 173, (6aS,12aS)-12-propyl-6a,7,12,12a-tetrahydro-1-methoxy-7,7-dimethyl-6H-chromeno[4,3-b]quinoline] | 1.8 | 
18 | CC1(C)c2cc(C(O)(C(F)(F)F)C(F)(F)F)ccc2NC2c3ccc(C(=O)O)cc3OCC21 (stereo not drawn) [Number 14, 7,7-dimethyl-9-[2,2,2-trifluoro-1-hydroxy-1-(trifluoromethyl)ethyl]-7,12,12a,6a-tetrahydrochromano[4,3-b]quinoline-3-carboxylic acid] |  | 3.1
19 | COc1cc(Br)cc2c1OC[C@@H]1[C@H]2Nc2ccc(C(O)(C(F)(F)F)C(F)(F)F)cc2C1(C)C [Number 65, 2-((6aS,12aR)-2-bromo-4-methoxy-7,7-dimethyl(7,12,12a,6a-tetrahydrochromano[4,3-b]quinolin-9-yl))-1,1,1,3,3,3-hexafluoropropan-2-ol] |  | 3.2
20 | COc1cccc2c1[C@@H]1[C@H](CO2)C(C)(C)c2ccccc2N1CC(=O)O [Number 154, 2-((6aR,12aS)-6a,7-dihydro-1-methoxy-7,7-dimethyl-6H-chromeno[4,3-b]quinolin-12(12aH)-yl)acetic acid] | 9.4 | 
21 | COc1cccc2c1[C@H]1Nc3ccc(-c4csnn4)cc3C(C)(C)[C@H]1CO2 [Number 73, (12aS,6aR)-1-methoxy-7,7-dimethyl-9-(1,2,3-thiadiazol-4-yl)-7,12,12a,6a-tetrahydrochromano[4,3-b]quinoline] |  | 8.0
22 | Cc1cccc2c1OCC1C2Nc2ccc(C(N)=O)cc2C1(C)C (stereo not drawn) [Number 29, 4,7,7-trimethyl-7,12,12a,6a-tetrahydrochromano[4,3-b]quinoline-9-carboxamide] |  | 5.8
23 | COc1cc(I)cc2c1OC[C@@H]1[C@@H]2Nc2ccc(-n3ncc(C(=O)O)c3C)cc2C1(C)C [Number 177, 1-((6aS,12aS)-6a,7,12,12a-tetrahydro-2-iodo-4-methoxy-7,7-dimethyl-6H-chromeno[4,3-b]quinolin-9-yl)-5-methyl-1H-pyrazole-4-carboxylic acid] | 2.6 | 
24 | COc1cccc2c1OC[C@@H]1[C@H]2Nc2ccc(N3CCS(=O)(=O)CC3)cc2C1(C)C [Number 20, 4-((6aS,12aR)-4-methoxy-7,7-dimethyl-7,12,12a,6a-tetrahydrochromano[4,3-b]quinolin-9-yl)-1,4-thiazaperhydroine-1,1-dione] |  | 6.5
25 | COc1cccc2c1[C@H]1Nc3ccc(-n4ncc(C(=O)O)c4C)cc3C(C)(C)[C@H]1CO2 [Number 118, 1-((6aR,12aS)-6a,7,12,12a-tetrahydro-1-methoxy-7,7-dimethyl-6H-chromeno[4,3-b]quinolin-9-yl)-5-methyl-1H-pyrazole-4-carboxylic acid] | 4 | 
26 | CC1(C)c2cc(C(O)(C(F)(F)F)C(F)(F)F)ccc2N[C@@H]2c3cc(OC(F)(F)F)ccc3OC[C@H]21 [Number 9, 2-[(12aS,6aS)-7,7-dimethyl-2-(trifluoromethoxy)(7,12,12a,6a-tetrahydrochromano[4,3-b]quinolin-9-yl)]-1,1,1,3,3,3-hexafluoropropan-2-ol] |  | 2.4
27 | COc1cccc2c1[C@H]1Nc3ccc(C(=O)N4CCN(C(=O)OC(C)(C)C)CC4)cc3C(C)(C)[C@H]1CO2 [Number 125, ((6aR,12aS)-6a,7,12,12a-tetrahydro-1-methoxy-7,7-dimethyl-6H-chromeno[4,3-b]quinolin-9-yl)(4-tert-butyl-carboxylate-piperazin-1-yl)methanone] |  | 4.1
